We go through 7 compounds from PubChem BioAssay AID1259407 (Chemical Carcinogenesis Research Information System (CCRIS), 2018).

Activity calls are given as the source filed them. The rule behind the calls is not given here.

The subject of this series is CCRIS mutagenicity, Ames/micronucleus/aberration tests. Description: CCRIS mutagenicity studies.
The mark [1] stands for this setting: Test System: AMES SALMONELLA TYPHIMURIUM, Strain/Indicator: TA100, Metabolic Activation: NONE, Method: STANDARD PLATE.
Where [2] appears, read: Test System: AMES SALMONELLA TYPHIMURIUM, Strain/Indicator: TA100, Metabolic Activation: RAT, LIVER, S-9, AROCLOR 1254, Method: STANDARD PLATE.
[3] abbreviates: Test System: AMES SALMONELLA TYPHIMURIUM, Strain/Indicator: TA98, Metabolic Activation: RAT, LIVER, S-9, AROCLOR 1254, Method: PREINCUBATION
Setting [4] is: Test System: AMES SALMONELLA TYPHIMURIUM, Strain/Indicator: TA102, Metabolic Activation: NONE, Method: STANDARD PLATE.
Setting [5] is: Test System: AMES SALMONELLA TYPHIMURIUM, Strain/Indicator: TA97, Metabolic Activation: NONE, Method: STANDARD PLATE.
[6] abbreviates: Test System: AMES SALMONELLA TYPHIMURIUM, Strain/Indicator: TA97, Metabolic Activation: RAT, LIVER, S-9, AROCLOR 1254, Method: STANDARD PLATE.
Where [7] appears, read: Test System: AMES SALMONELLA TYPHIMURIUM, Strain/Indicator: TA98, Metabolic Activation: NONE, Method: STANDARD PLATE.
The mark [8] stands for this setting: Test System: AMES SALMONELLA TYPHIMURIUM, Strain/Indicator: TA98, Metabolic Activation: RAT, LIVER, S-9, AROCLOR 1254, Method: STANDARD PLATE.
Setting [9] is: Test System: AMES SALMONELLA TYPHIMURIUM, Strain/Indicator: TA102, Metabolic Activation: RAT, LIVER, S-9, AROCLOR 1254, Method: STANDARD PLATE.

Regarding `C=C(C)C1CCC2(C)OC2C1` (stereo unspecified), the mutagenic call reads like this: under setting [1], “inactive; negative”; under setting [2], “inactive; negative”; (Test System: AMES SALMONELLA TYPHIMURIUM, Strain/Indicator: TA1535, Metabolic Activation: NONE, Method: STANDARD PLATE) “inactive; negative”; (Test System: AMES SALMONELLA TYPHIMURIUM, Strain/Indicator: TA1535, Metabolic Activation: RAT, LIVER, S-9, AROCLOR 1254, Method: STANDARD PLATE) “inactive; negative”; (Test System: UDS RAT HEPATOCYTES, Strain/Indicator: THY INCORP, Metabolic Activation: NONE) “inactive; negative”.

For the compound `O=C(Nc1ccc([N+](=O)[O-])cc1Cl)c1cc(Cl)ccc1O`, the mutagenic call (Test System: AMES SALMONELLA TYPHIMURIUM, Strain/Indicator: TA98(NR), Metabolic Activation: RAT, LIVER, S-9, AROCLOR 1254, Method: STANDARD PLATE) is “inactive; negative”; the mutagenic call (Test System: AMES SALMONELLA TYPHIMURIUM, Strain/Indicator: TA98, Metabolic Activation: NONE, Method: PREINCUBATION) is “inactive; negative”; the mutagenic call under setting [3] is “active; positive”; the mutagenic call (Test System: AMES SALMONELLA TYPHIMURIUM, Strain/Indicator: TA1538, Metabolic Activation: NONE, Method: PREINCUBATION) was “inactive; negative”; the mutagenic call (Test System: AMES SALMONELLA TYPHIMURIUM, Strain/Indicator: TA1538, Metabolic Activation: RAT, LIVER, S-9, AROCLOR 1254, Method: PREINCUBATION) is “active; positive”; the mutagenic call (Test System: AMES SALMONELLA TYPHIMURIUM, Strain/Indicator: TA1978, Metabolic Activation: NONE, Method: PREINCUBATION) was “inactive; negative”. The mutagenic call is, setting by setting: (Test System: AMES SALMONELLA TYPHIMURIUM, Strain/Indicator: TA1978, Metabolic Activation: RAT, LIVER, S-9, AROCLOR 1254, Method: PREINCUBATION) “inactive; negative”; (Test System: AMES SALMONELLA TYPHIMURIUM, Strain/Indicator: UTH8413, Metabolic Activation: NONE, Method: PREINCUBATION) “inactive; negative”; (Test System: AMES SALMONELLA TYPHIMURIUM, Strain/Indicator: UTH8413, Metabolic Activation: RAT, LIVER, S-9, AROCLOR 1254, Method: PREINCUBATION) “inactive; negative”; (Test System: AMES SALMONELLA TYPHIMURIUM, Strain/Indicator: YG1020, Metabolic Activation: RAT, LIVER, S-9, AROCLOR 1254, Method: STANDARD PLATE) “active; positive”; (Test System: AMES SALMONELLA TYPHIMURIUM, Strain/Indicator: YG1021, Metabolic Activation: RAT,LIVER, S-9, AROCLOR 1254, Method: STANDARD PLATE) “active; positive”; (Test System: AMES SALMONELLA TYPHIMURIUM, Strain/Indicator: YG1024, Metabolic Activation: RAT, LIVER, S-9, AROCLOR 1254, Method: STANDARD PLATE) “active; positive”.

`O=[As](O)(O)O`: the mutagenic call was “active; positive (structural changes: gaps, breaks)” (End Point: IN VITRO CHROMOSOMAL ABERRATIONS, Test System: CHINESE HAMSTER OVARY (CHO), Metabolic Activation: NONE); “active; positive” (End Point: IN VITRO MICRONUCLEUS, Test System: CHINESE HAMSTER V-79, Metabolic Activation: NONE); “active; positive” (End Point: In vitro chromosomal aberrations, Test System: Human peripheral lymphocytes, Metabolic Activation: None); “active; positive” (End Point: In vitro micronucleus, Test System: Human peripheral lymphocytes, Metabolic Activation: None); “inactive; negative” (End Point: In vivo micronucleus, Test System: Bone marrow polychromatic erythrocytes, Species: Mouse, Strain/Sex: C57BI/6J/Female, Route: Oral); “inactive; negative” under setting [4]. Besides, the mutagenic call is, setting by setting: (Test System: CHINESE HAMSTER V-79, Strain/Indicator: SP5 V-79 (HPRT)/6-THIOGUANINE, Metabolic Activation: NONE, Method: STANDARD PLATE) “inactive; negative”; (Test System: CHINESE HAMSTER V-79, Strain/Indicator: SPD8 V-79 (HPRT)/6-THIOGUANINE, Metabolic Activation: NONE, Method: STANDARD PLATE) “active; positive”; (Test System: E. COLI, Strain/Indicator: WP2 UVRA, Metabolic Activation: NONE, Method: SPOT TEST) “inactive; negative”; (Test System: MOUSE LYMPHOMA, Strain/Indicator: L5178Y (TK+/TK-), Metabolic Activation: NONE, Method: SUSPENSION/PLATE) “active; positive”.

On to `COc1nc(C(Cl)(Cl)Cl)c(Cl)c(OC)c1Cl`, for which the mutagenic call (Test System: Mouse lymphoma, Strain/Indicator: L5178Y (tk+/tk-), Metabolic Activation: Rat, Liver, S-9, Aroclor 1254, Method: Suspension/plate) is “active; positive”.

As for `CNCCCC(=O)O`, the mutagenic call runs as follows: under setting [5], “inactive; negative”; under setting [6], “inactive; negative”; under setting [7], “inactive; negative”; under setting [3], “inactive; negative”; under setting [8], “inactive; negative”; under setting [1], “inactive; negative”. The mutagenic call was “inactive; negative” under setting [2]; “inactive; negative” under setting [4]; “inactive; negative” under setting [9]; “inactive; negative” (Test System: AMES SALMONELLA TYPHIMURIUM, Strain/Indicator: TA104, Metabolic Activation: NONE, Method: STANDARD PLATE); “inactive; negative” (Test System: AMES SALMONELLA TYPHIMURIUM, Strain/Indicator: TA104, Metabolic Activation: RAT, LIVER, S-9, AROCLOR 1254, Method: PREINCUBATION); “inactive; negative” (Test System: AMES SALMONELLA TYPHIMURIUM, Strain/Indicator: TA104, Metabolic Activation: RAT, LIVER, S-9, AROCLOR 1254, Method: STANDARD PLATE). Moreover, the mutagenic call (Test System: AMES SALMONELLA TYPHIMURIUM, Strain/Indicator: TA2638, Metabolic Activation: NONE, Method: STANDARD PLATE) was “inactive; negative”; the mutagenic call (Test System: AMES SALMONELLA TYPHIMURIUM, Strain/Indicator: TA2638, Metabolic Activation: RAT, LIVER, S-9, AROCLOR 1254, Method: STANDARD PLATE) was “inactive; negative”; the mutagenic call (Test System: AMES SALMONELLA TYPHIMURIUM, Strain/Indicator: UTH8413, Metabolic Activation: NONE, Method: STANDARD PLATE) was “inactive; negative”; the mutagenic call (Test System: AMES SALMONELLA TYPHIMURIUM, Strain/Indicator: UTH8413, Metabolic Activation: RAT, LIVER, S-9, AROCLOR 1254, Method: STANDARD PLATE) is “inactive; negative”; the mutagenic call (Test System: AMES SALMONELLA TYPHIMURIUM, Strain/Indicator: UTH8414, Metabolic Activation: NONE, Method: STANDARD PLATE) is “inactive; negative”; the mutagenic call (Test System: AMES SALMONELLA TYPHIMURIUM, Strain/Indicator: UTH8414, Metabolic Activation: RAT, LIVER, S-9, AROCLOR 1254, Method: STANDARD PLATE) was “inactive; negative”.

For the compound `N#CC1CO1` (stereo unspecified), the mutagenic call is “active; positive” (Test System: UDS HUMAN MAMMARY EPITHELIAL CELLS, Strain/Indicator: THY INCORP, Metabolic Activation: NONE, Method: AUTORADIOGRAPHY) and “inactive; negative” (Test System: UDS PRIMARY RAT HEPATOCYTES, Strain/Indicator: THY INCORP, Metabolic Activation: NONE, Method: AUTORADIOGRAPHY).

`CC(=O)n1ccnc1`: the mutagenic call reads like this: under setting [5], “inactive; negative”; under setting [6], “inactive; negative”; under setting [7], “inactive; negative”; under setting [8], “inactive; negative”; under setting [1], “inactive; negative”; under setting [2], “inactive; negative”. For the same compound, the mutagenic call under setting [4] is “inactive; negative” and the mutagenic call under setting [9] is “inactive; negative”.
